{"source": "patent US20240082212A1", "about": "“USE OF MDMA FOR TREATMENT OF STRESS-RELATED DISORDERS” (priority 2022, published 2024)", "key": {"[1]": {"target": "Serotonin 5-HT2A (Homo sapiens, UniProt P28223)", "sequence (P28223 whole entry)": "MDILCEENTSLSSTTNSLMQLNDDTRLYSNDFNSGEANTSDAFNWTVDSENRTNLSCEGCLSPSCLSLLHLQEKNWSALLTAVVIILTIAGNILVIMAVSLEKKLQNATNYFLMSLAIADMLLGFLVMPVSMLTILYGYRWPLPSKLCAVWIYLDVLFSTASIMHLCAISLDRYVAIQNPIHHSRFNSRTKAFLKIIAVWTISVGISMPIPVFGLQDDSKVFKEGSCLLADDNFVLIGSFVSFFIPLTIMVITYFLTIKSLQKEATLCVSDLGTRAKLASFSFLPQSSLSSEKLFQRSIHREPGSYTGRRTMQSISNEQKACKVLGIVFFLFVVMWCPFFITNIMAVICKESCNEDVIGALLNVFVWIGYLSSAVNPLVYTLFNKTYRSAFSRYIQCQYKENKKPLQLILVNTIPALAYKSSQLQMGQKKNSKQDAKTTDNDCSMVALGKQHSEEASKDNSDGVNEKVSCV", "assay": "Eurofins Panlabs radioligand binding panel, serotonin 5-HT2A"}, "[2]": {"target": "T1, Serotonin 5-HT2C (Homo sapiens, UniProt P28335)", "T1 sequence (P28335 33-458)": "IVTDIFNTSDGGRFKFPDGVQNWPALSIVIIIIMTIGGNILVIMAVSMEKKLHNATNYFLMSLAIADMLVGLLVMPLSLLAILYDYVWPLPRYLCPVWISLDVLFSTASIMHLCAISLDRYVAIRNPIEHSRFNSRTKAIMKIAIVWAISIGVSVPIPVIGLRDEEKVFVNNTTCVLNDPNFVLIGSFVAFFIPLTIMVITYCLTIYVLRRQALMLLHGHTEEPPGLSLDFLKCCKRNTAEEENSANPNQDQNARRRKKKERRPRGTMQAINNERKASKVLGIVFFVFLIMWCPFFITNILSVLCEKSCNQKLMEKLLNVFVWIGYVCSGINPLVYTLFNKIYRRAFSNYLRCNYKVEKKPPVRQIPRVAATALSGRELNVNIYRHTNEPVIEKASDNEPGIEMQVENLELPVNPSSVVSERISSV", "assay": "biochemical", "format": "binding", "settings": "read-out: % inhibition of binding or activity"}, "[3]": {"target": "Nicotinic acetylcholine α3β4 (Homo sapiens, UniProt P30926+P32297)", "sequence (P32297 32-505)": "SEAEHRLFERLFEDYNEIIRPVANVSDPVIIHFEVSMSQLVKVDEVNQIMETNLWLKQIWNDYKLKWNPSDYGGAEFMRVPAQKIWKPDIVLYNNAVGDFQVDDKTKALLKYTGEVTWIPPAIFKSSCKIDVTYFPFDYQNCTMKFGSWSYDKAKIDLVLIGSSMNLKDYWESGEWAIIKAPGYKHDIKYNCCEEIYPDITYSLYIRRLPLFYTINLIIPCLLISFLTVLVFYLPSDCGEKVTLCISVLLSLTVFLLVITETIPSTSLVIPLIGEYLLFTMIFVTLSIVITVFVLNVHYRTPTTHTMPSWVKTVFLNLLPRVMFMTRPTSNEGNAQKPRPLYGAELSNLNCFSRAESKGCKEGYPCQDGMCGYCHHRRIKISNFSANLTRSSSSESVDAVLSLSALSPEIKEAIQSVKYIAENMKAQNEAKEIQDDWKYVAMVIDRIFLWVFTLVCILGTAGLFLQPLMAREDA", "sequence (P30926 22-498)": "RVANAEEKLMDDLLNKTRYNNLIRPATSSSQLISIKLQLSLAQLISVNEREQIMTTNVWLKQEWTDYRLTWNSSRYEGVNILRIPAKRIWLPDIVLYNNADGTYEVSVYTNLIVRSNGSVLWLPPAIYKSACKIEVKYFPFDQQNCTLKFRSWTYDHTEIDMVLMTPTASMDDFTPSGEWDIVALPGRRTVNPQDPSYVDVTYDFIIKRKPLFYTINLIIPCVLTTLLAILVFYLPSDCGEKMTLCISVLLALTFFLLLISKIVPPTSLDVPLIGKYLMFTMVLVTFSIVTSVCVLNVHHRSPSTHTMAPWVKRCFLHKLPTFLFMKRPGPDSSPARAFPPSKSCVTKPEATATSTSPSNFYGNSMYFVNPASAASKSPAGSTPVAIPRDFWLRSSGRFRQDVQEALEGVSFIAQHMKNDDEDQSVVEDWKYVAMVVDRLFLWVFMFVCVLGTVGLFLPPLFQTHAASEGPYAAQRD", "assay": "Eurofins Panlabs radioligand binding panel, nicotinic acetylcholine α3β4", "settings": "read-out: % inhibition of binding or activity"}, "[4]": {"system": "L-type calcium channel phenylalkylamine binding site", "assay": "Eurofins Panlabs radioligand binding panel, L-type calcium channel", "design": "species or system Rat"}, "[5]": {"system": "CD (Sprague Dawley) rats", "assay": "Rat functional observation battery (FOB) neurobehavioral evaluation after cumulative SC dosing", "format": "in vivo", "method": "The observations were assessed through a rat functional observation battery (FOB) and continuous physiological measurements on the day of cumulative dosing, which are provided in further detail below.\nMethods. A total of 42 adult male CD® (Sprague Dawley) rats (Charles River Laboratories) were surgically implanted with DSI radiotelemetry devices by personnel at Charles River Laboratories Raleigh, NC, per their test site SOPs. Telemetry devices supported continuous recording of temperature, activity, blood pressure and heart rate. Telemeterized rats were shipped to the Charles River Laboratories testing facility (Mattawan, MI) and acclimated to the environment for at least 1 week prior to experimentation. Animals were pair-housed in solid bottom cages with nonaromatic bedding. On the dosing day, animals were singly housed and then returned to the paired cohort following the dosing/telemetry recording phase. Diet (Lab Diet® Certified Rodent Diet #5CR4) and tap water via an automatic water system were available ad libitum, except during designated procedures. Temperature and humidity were maintained according to the Testing Facility SOP. Animals were randomized into treatment groups using a standard, by weight, measured value randomization procedure. Body weight was determined for each rat prior to dosing.\nAs illustrated in the Table, a total of 36 rats were included in the study. The vehicle and 2 test article doses were administered in a volume of 1 mL/kg to each of 3 groups of n=12 telemeterized rats via subcutaneous injection four times on a given day, followed by neurobehavioral evaluations. This series was repeated 3 times on study. Each group received all 3 dose levels of the applicable test or control article in ascending order with a 1-week washout between dose levels.\nMortality/cage side clinical observations were conducted for all study animals at least twice daily beginning upon receipt through termination, except on days of receipt and termination where frequency was at least once daily. Detailed clinical observations were conducted for all study animals prior to each of the four cumulative doses in a series. Individual body weights were conducted for all study animals at transfer, prior to randomization, on the day of dosing on each of the 3 cycles of dosing. The body weights recorded at transfer and prior to randomization are not reported but are maintained in the study file. Veterinary care was available throughout the course of the study, and animals were examined by the veterinary staff as needed based on clinical signs or other changes. All animals were provided with HydroGel the night prior to their respective dosing days to potentially mitigate any animal welfare issues related to fluid loss/dehydration.\nNeurobehavioral evaluations (blinded) were conducted for all study animals 1 hour following the last (4th) cumulative dose of the series. The neurobehavioral parameters evaluated included: activity measurements (arousal/alertness, posture/body carriage, stereotypy, rearing, and appearance), autonomic measurements (exophthalmus, lacrimation, erected fur, pupil response, salivation, defecation, and palpebral closure/ptosis), excitability measurements (vocalizations, startle response, ease of removal, handling reactivity, and convulsions), neuromuscular measurements (gait/mobility, grip strength/response, air righting reflex, tremor, and body tone), physiological measurements (respiration and body temperature), and sensorimotor measurements (touch response/tactile reflex and thermal response)."}, "[6]": {"settings": "10 half-log concentrations, 0.3 nM to 10 μM, duplicate"}, "[7]": {"settings": "1 h after last of 4 hourly SC injections, R-MDMA and racemic MDMA 10, 20 mg/kg/day, S-MDMA 5, 10 mg/kg/day"}, "[8]": {"settings": "FOB, cumulative SC dosing, dose groups stated in the value"}}, "note": "pIC50, pKi: −log10 of the molar value. “Also recorded” adds a separate entry of the source."}
{"smiles": "CNC(C)Cc1ccc2c(c1)OCO2", "note": "(single isomer, unassigned) [R-MDMA, R(−)-3,4-methylenedioxymethamphetamine]", "values": [{"measurement": "pIC50", "setting": "[1]", "value": 5.00}, {"measurement": "pKi", "setting": "[1]", "value": 5.55}, {"measurement": "inhibition at 10 µM", "setting": "[2]", "value": 78, "unit": "%"}, {"measurement": "inhibition at 10 µM", "setting": "[3]", "value": 55, "unit": "%"}, {"measurement": "% inhibition of binding or activity", "setting": "[4]; 10 uM", "value": 55, "unit": "%"}, {"measurement": "pIC50", "setting": "[4]; [6]", "value": 5.02}, {"measurement": "pKi", "setting": "[4]; [6]", "value": 5.03}, {"measurement": "arousal/alertness and rearing", "setting": "[5]; [7]", "value": "dose-dependent decreases in arousal/alertness and rearing"}, {"measurement": "ease of removal from the home cage and handling reactivity (excitability)", "setting": "[5]; [7]", "value": "Dose-dependent increased difficulty in removal from the home cage and increased handling reactivity"}, {"measurement": "forelimb grip strength", "setting": "[5]; [7]", "value": "dose-dependent statistically significant decreases in forelimb grip strength"}, {"measurement": "salivation and erected fur (autonomic)", "setting": "[5]; [7]", "value": "Dose-dependent increased salivation and erected fur"}, {"measurement": "unkempt appearance", "setting": "[5]; [7]", "value": "increased incidence of unkempt appearance in a dose-dependent manner"}, {"measurement": "stereotypies (mouth movements/weaving, circling/retropulsion, sniffing)", "setting": "[5]; 1 h after last of 4 hourly SC injections, highest doses: S-MDMA 10, racemic-MDMA 20 mg/kg/day, R-MDMA 10, 20 mg/kg/day", "value": "No stereotypical behaviors were reported"}, {"measurement": "Rank Order Activity Measurement Effects", "setting": "[5]; [8]", "value": "S-MDMA (5 mg/kg/day) < R-MDMA (10 mg/kg/day) < Rac.-MDMA (10 mg/kg/day); also recorded: Rac.-MDMA (20 mg/kg/day) < S-MDMA (10 mg/kg/day) < R-MDMA (20 mg/kg/day); also recorded: R-MDMA (0 mg/kg/day) < R-MDMA (10 mg/kg/day) < R-MDMA (20 mg/kg/day); also recorded: Rac.-MDMA (20 mg/kg/day) < S-MDMA (10 mg/kg/day) < R-MDMA (10 mg/kg/day)"}, {"measurement": "Rank Order Autonomic Measurement Effects", "setting": "[5]; [8]", "value": "R-MDMA (10 mg/kg/day) < S-MDMA (5 mg/kg/day) < Rac.-MDMA (10 mg/kg/day); also recorded: R-MDMA (20 mg/kg/day) < S-MDMA (10 mg/kg/day) < Rac-MDMA (20 mg/kg/day); also recorded: R-MDMA (0 mg/kg/day) < R-MDMA (10 mg/kg/day) < R-MDMA (20 mg/kg/day); also recorded: R-MDMA (10 mg/kg/day) < S-MDMA (10 mg/kg/day) = Rac-MDMA (20 mg/kg/day)"}, {"measurement": "Rank Order Excitability Measurement Effects", "setting": "[5]; [8]", "value": "R-MDMA (10 mg/kg/day) < S-MDMA (5 mg/kg/day) < Rac.-MDMA (10 mg/kg/day); also recorded: R-MDMA (20 mg/kg/day) = S-MDMA (10 mg/kg/day) < Rac-MDMA (20 mg/kg/day); also recorded: R-MDMA (0 mg/kg/day) < R-MDMA (10 mg/kg/day) < R-MDMA (20 mg/kg/day); also recorded: R-MDMA (10 mg/kg/day) < S-MDMA (10 mg/kg/day) < Rac-MDMA (20 mg/kg/day)"}, {"measurement": "Rank Order Neuromuscular Measurement Effects", "setting": "[5]; [8]", "value": "R-MDMA (10 mg/kg/day) < S-MDMA (5 mg/kg/day) < Rac.-MDMA (10 mg/kg/day); also recorded: R-MDMA (20 mg/kg/day) = S-MDMA (10 mg/kg/day) < Rac-MDMA (20 mg/kg/day); also recorded: R-MDMA (0 mg/kg/day) < R-MDMA (10 mg/kg/day) < R-MDMA (20 mg/kg/day); also recorded: R-MDMA (10 mg/kg/day) < S-MDMA (10 mg/kg/day) < Rac-MDMA (20 mg/kg/day)"}, {"measurement": "Rank Order Physiological Measurement Effects", "setting": "[5]; [8]", "value": "R-MDMA (10 mg/kg/day) < S-MDMA (5 mg/kg/day) < Rac.-MDMA (10 mg/kg/day); also recorded: R-MDMA (20 mg/kg/day) < S-MDMA (10 mg/kg/day) = Rac-MDMA (20 mg/kg/day); also recorded: R-MDMA (0 mg/kg/day) = R-MDMA (10 mg/kg/day) = R-MDMA (20 mg/kg/day); also recorded: R-MDMA (10 mg/kg/day) < S-MDMA (10 mg/kg/day) = Rac-MDMA (20 mg/kg/day)"}, {"measurement": "Rank Order Sensorimotor Measurement Effects", "setting": "[5]; [8]", "value": "S-MDMA (5 mg/kg/day) < Rac-MDMA (10 mg/kg/day) < R-MDMA (10 mg/kg/day); also recorded: S-MDMA (10 mg/kg/day) < Rac-MDMA (20 mg/kg/day) < R-MDMA (20 mg/kg/day); also recorded: R-MDMA (0 mg/kg/day) < R-MDMA (10 mg/kg/day) < R-MDMA (20 mg/kg/day)"}, {"measurement": "thermal response times", "setting": "[5]; at levels at least two-fold that of vehicle-treated groups, 1 h after last of 4 hourly SC injections", "value": "Statistically significant increases in thermal response times"}]}
